{"source": "patent US11318232B2", "about": "“Compositions and methods for delivering drugs to a vessel wall” (Interface Biologics, Inc., priority 2018, dated 2022)", "system": "Rat Aortic Smooth Muscle Cells (RASMCs)", "conditions": "drug spiked directly into growth media, 20 ng/mL"}
{"smiles": "CO[C@H]1C[C@@H]2CC[C@@H](C)[C@@](O)(O2)C(=O)C(=O)N2CCCC[C@H]2C(=O)O[C@H]([C@H](C)C[C@@H]2CC[C@@H](O)[C@H](OC)C2)CC(=O)[C@H](C)/C=C(\\C)[C@@H](O)[C@@H](OC)C(=O)[C@H](C)C[C@H](C)/C=C/C=C/C=C/1C", "note": "[sirolimus]", "values": [{"measurement": "Normalized cell growth at 72 hours", "result": "0.463±0.035"}]}
